Assay results reported in patent US20250230193A1, “CYCLIC COMPOUND HAVING SELECTIVE KRAS INHIBITORY EFFECT ON HRAS AND NRAS” (CHUGAI SEIYAKU KABUSHIKI KAISHA, priority 2022, published 2025).

Key:
[1] = molecular target: GDP-bound HRAS wild-type protein (Homo sapiens, UniProt P01112); assay: Binding to HRAS by surface plasmon resonance (SPR), Single Cycle Kinetics; conditions: SPR, GDP-bound HRAS wild-type vs GDP-bound KRAS wild-type
[2] = molecular target: GDP-bound NRAS wild-type protein (Homo sapiens, UniProt P01111); assay: Binding to NRAS by surface plasmon resonance (SPR), Single Cycle Kinetics; conditions: SPR, GDP-bound NRAS wild-type vs GDP-bound KRAS wild-type
Sequence of GDP-bound NRAS wild-type protein (P01111 whole entry): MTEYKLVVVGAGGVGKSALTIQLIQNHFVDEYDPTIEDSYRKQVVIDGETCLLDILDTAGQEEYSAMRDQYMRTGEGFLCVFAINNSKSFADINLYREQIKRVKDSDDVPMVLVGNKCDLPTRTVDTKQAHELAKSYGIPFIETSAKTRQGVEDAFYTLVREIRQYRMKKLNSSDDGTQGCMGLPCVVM

Sequence of GDP-bound HRAS wild-type protein (P01112 whole entry): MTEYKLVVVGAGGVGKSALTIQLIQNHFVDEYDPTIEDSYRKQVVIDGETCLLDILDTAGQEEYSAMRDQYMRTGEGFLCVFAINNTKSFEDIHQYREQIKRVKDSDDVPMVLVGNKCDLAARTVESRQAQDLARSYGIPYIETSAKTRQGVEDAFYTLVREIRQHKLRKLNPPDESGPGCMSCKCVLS

| Compound | HRAS/KRAS (ratio of KD value with respect to HRAS to KD value with respect to KRAS) [1] | NRAS/KRAS (ratio of KD value with respect to NRAS to KD value with respect to KRAS) [2] |
| --- | --- | --- |
| CC[C@H](C)[C@@H]1NC(=O)[C@H](C(C)C)N(C)C(=O)C[C@@H](C(=O)N(C)CC)N(C)C(=O)[C@H](C2CCCC2)N(C)C(=O)C2(CCC2)NC(=O)[C@@H]2C[C@H](C)CN2C(=O)[C@H](CCc2cc(F)c(C(F)(F)F)c(F)c2)NC(=O)CN(C)C(=O)[C@H](Cc2ccc(C(F)(F)F)cc2)N2CC/C=C\C[C@@H](C2=O)N(C)C(=O)CN(C)C1=O [PP2078] | A (a compound having 10 or more and less than 20 is denoted as A) | AA (a compound having 20 or more is denoted as AA) |
| CCCN(C)C(=O)[C@@H]1CC(=O)N(C)[C@@H](C(C)C)C(=O)N[C@@H]([C@@H](C)CC)C(=O)N(C)CC(=O)N(C)[C@H]2C/C=C\CCN(C2=O)[C@@H](Cc2ccc(C(F)(F)F)cc2)C(=O)N(C)CC(=O)N[C@@H](CCc2cc(F)c(C(F)(F)F)c(F)c2)C(=O)N2C[C@@H](C)C[C@H]2C(=O)NC2(CCC2)C(=O)N(C)[C@@H](C2CCCC2)C(=O)N1C [PP2079] | A (a compound having 10 or more and less than 20 is denoted as A) | A (a compound having 10 or more and less than 20 is denoted as A) |
| CC[C@H](C)[C@@H]1NC(=O)[C@H](C2CC2)N(C)C(=O)C[C@@H](C(=O)N(C)CC)N(C)C(=O)[C@H](C2CCCC2)N(C)C(=O)C2(CCC2)NC(=O)[C@@H]2C[C@H](C)CN2C(=O)[C@H](CCc2cc(F)c(C(F)(F)F)c(F)c2)NC(=O)CN(C)C(=O)[C@H](Cc2ccc(C(F)(F)F)cc2)N2CC/C=C\C[C@@H](C2=O)N(C)C(=O)CN(C)C1=O [PP2080] | A (a compound having 10 or more and less than 20 is denoted as A) | A (a compound having 10 or more and less than 20 is denoted as A) |
| CCCN(C)C(=O)[C@@H]1CC(=O)N(C)[C@@H](C2CC2)C(=O)N[C@@H]([C@@H](C)CC)C(=O)N(C)CC(=O)N(C)[C@H]2C/C=C\CCN(C2=O)[C@@H](Cc2ccc(C(F)(F)F)cc2)C(=O)N(C)CC(=O)N[C@@H](CCc2cc(F)c(C(F)(F)F)c(F)c2)C(=O)N2C[C@@H](C)C[C@H]2C(=O)NC2(CCC2)C(=O)N(C)[C@@H](C2CCCC2)C(=O)N1C [PP2081] | A (a compound having 10 or more and less than 20 is denoted as A) | A (a compound having 10 or more and less than 20 is denoted as A) |
| CC[C@H](C)[C@@H]1NC(=O)[C@H](C2CCC2)N(C)C(=O)C[C@@H](C(=O)N(C)CC)N(C)C(=O)[C@H](C2CCCC2)N(C)C(=O)C2(CCC2)NC(=O)[C@@H]2C[C@H](C)CN2C(=O)[C@H](CCc2cc(F)c(C(F)(F)F)c(F)c2)NC(=O)CN(C)C(=O)[C@H](Cc2ccc(C(F)(F)F)cc2)N2CC/C=C\C[C@@H](C2=O)N(C)C(=O)CN(C)C1=O [PP2082] | A (a compound having 10 or more and less than 20 is denoted as A) | AA (a compound having 20 or more is denoted as AA) |
| CCCN(C)C(=O)[C@@H]1CC(=O)N(C)[C@@H](C2CCC2)C(=O)N[C@@H]([C@@H](C)CC)C(=O)N(C)CC(=O)N(C)[C@H]2C/C=C\CCN(C2=O)[C@@H](Cc2ccc(C(F)(F)F)cc2)C(=O)N(C)CC(=O)N[C@@H](CCc2cc(F)c(C(F)(F)F)c(F)c2)C(=O)N2C[C@@H](C)C[C@H]2C(=O)NC2(CCC2)C(=O)N(C)[C@@H](C2CCCC2)C(=O)N1C [PP2083] | B (a compound having 3 or more and less than 10 is denoted as B) | A (a compound having 10 or more and less than 20 is denoted as A) |
| C#CCN1CC(=O)N(C)[C@H]2C/C=C\CCN(C2=O)[C@@H](Cc2ccc(C(F)(F)F)cc2)C(=O)N(C)CC(=O)N[C@@H](CCc2cc(F)c(C(F)(F)F)c(F)c2)C(=O)N2C[C@H](OCC)C[C@H]2C(=O)NC2(CC(C)(C)C2)C(=O)N(C)[C@@H](C2CCCC2)C(=O)N(C)[C@H](C(=O)N(C)C)CC(=O)N(C)[C@@H](CC)C(=O)N[C@@H]([C@@H](C)CC)C1=O [PP2087] | A (a compound having 10 or more and less than 20 is denoted as A) | A (a compound having 10 or more and less than 20 is denoted as A) |
| C#CCN1CC(=O)N(C)[C@H]2C/C=C\CCN(C2=O)[C@@H](Cc2ccc(C(F)(F)F)cc2)C(=O)N(C)CC(=O)N[C@@H](CCc2ccc(C(F)(F)F)c(OC)c2)C(=O)N2C[C@H](OCC)C[C@H]2C(=O)NC2(CC(C)(C)C2)C(=O)N(C)[C@@H](C2CCCC2)C(=O)N(C)[C@H](C(=O)N(C)C)CC(=O)N(C)[C@@H](CC)C(=O)N[C@@H]([C@@H](C)CC)C1=O [PP2091] | B (a compound having 3 or more and less than 10 is denoted as B) | A (a compound having 10 or more and less than 20 is denoted as A) |
| CCC[C@H]1C(=O)N[C@@H]([C@@H](C)CC)C(=O)N(C2CC2)CC(=O)N(C)[C@H]2C/C=C\CCN(C2=O)[C@@H](Cc2ccc(C)cc2)C(=O)N(C)CC(=O)N[C@@H](CCc2cc(F)c(C(F)(F)F)c(F)c2)C(=O)N2C[C@H](OCC)C[C@H]2C(=O)NC2(CC(C)(C)C2)C(=O)N(C)[C@@H](C2CCCC2)C(=O)N(C)[C@H](C(=O)N(C)C)CC(=O)N1C [PP2093, (2S,8S,12R,14S,20S,23S,27S,30S,36S,38Z)-20-cyclopentyl-32-cyclopropyl-8-[2-[3,5-difluoro-4-(trifluoromethyl)phenyl]ethyl]-12-ethoxy-N,N,3′,3′,4,19,22,26,35-nonamethyl-30-[(1S)-1-methylpropyl]-3,6,9,15,18,21,25,28,31,34,42-undecaoxo-27-propyl-2-(p-tolylmethyl)spiro[1,4,7,10,16,19,22,26,29,32,35-undecazatricyclo[34.5.1.0^10,14]dotetracont-38-ene-17,1′-cyclobutane]-23-carboxamide] | A (a compound having 10 or more and less than 20 is denoted as A) | A (a compound having 10 or more and less than 20 is denoted as A) |
| C=CCN1CC(=O)N(C)[C@H]2C/C=C\CCN(C2=O)[C@@H](Cc2ccc(C)cc2)C(=O)N(C)CC(=O)N[C@@H](CCc2cc(F)c(C(F)(F)F)c(F)c2)C(=O)N2C[C@H](OCC)C[C@H]2C(=O)NC2(CC(C)(C)C2)C(=O)N(C)[C@@H](C2CCCC2)C(=O)N(C)[C@H](C(=O)N(C)C)CC(=O)N(C)[C@@H](CCC)C(=O)N[C@@H]([C@@H](C)CC)C1=O [PP2094] | A (a compound having 10 or more and less than 20 is denoted as A) | A (a compound having 10 or more and less than 20 is denoted as A) |
| C#CCN1CC(=O)N(C)[C@H]2C/C=C\CCN(C2=O)[C@@H](Cc2ccc(C)cc2)C(=O)N(C)CC(=O)N[C@@H](CCc2cc(F)c(C(F)(F)F)c(F)c2)C(=O)N2C[C@H](OCC)C[C@H]2C(=O)NC2(CC(C)(C)C2)C(=O)N(C)[C@@H](C2CCCC2)C(=O)N(C)[C@H](C(=O)N(C)C)CC(=O)N(C)[C@@H](CCC)C(=O)N[C@@H]([C@@H](C)CC)C1=O [PP2095] | A (a compound having 10 or more and less than 20 is denoted as A) | A (a compound having 10 or more and less than 20 is denoted as A) |
| CCCN1CC(=O)N(C)[C@H]2C/C=C\CCN(C2=O)[C@@H](Cc2ccc(C)cc2)C(=O)N(C)CC(=O)N[C@@H](CCc2ccc(C(F)(F)F)c(OC)c2)C(=O)N2C[C@H](OCC)C[C@H]2C(=O)NC2(CC(C)(C)C2)C(=O)N(C)[C@@H](C2CCCC2)C(=O)N(C)[C@H](C(=O)N(C)C)CC(=O)N(C)[C@@H](CC)C(=O)N[C@@H]([C@@H](C)CC)C1=O [PP2096] | A (a compound having 10 or more and less than 20 is denoted as A) | A (a compound having 10 or more and less than 20 is denoted as A) |
| CCC[C@H]1C(=O)N[C@@H]([C@@H](C)CC)C(=O)N(C2CC2)CC(=O)N(C)[C@H]2C/C=C\CCN(C2=O)[C@@H](Cc2ccc(C)cc2)C(=O)N(C)CC(=O)N[C@@H](CCc2ccc(C(F)(F)F)c(OC)c2)C(=O)N2C[C@H](OCC)C[C@H]2C(=O)NC2(CC(C)(C)C2)C(=O)N(C)[C@@H](C2CCCC2)C(=O)N(C)[C@H](C(=O)N(C)C)CC(=O)N1C [PP2097] | A (a compound having 10 or more and less than 20 is denoted as A) | A (a compound having 10 or more and less than 20 is denoted as A) |
| C=CCN1CC(=O)N(C)[C@H]2C/C=C\CCN(C2=O)[C@@H](Cc2ccc(C)cc2)C(=O)N(C)CC(=O)N[C@@H](CCc2ccc(C(F)(F)F)c(OC)c2)C(=O)N2C[C@H](OCC)C[C@H]2C(=O)NC2(CC(C)(C)C2)C(=O)N(C)[C@@H](C2CCCC2)C(=O)N(C)[C@H](C(=O)N(C)C)CC(=O)N(C)[C@@H](CCC)C(=O)N[C@@H]([C@@H](C)CC)C1=O [PP2098] | A (a compound having 10 or more and less than 20 is denoted as A) | A (a compound having 10 or more and less than 20 is denoted as A) |
| C#CCN1CC(=O)N(C)[C@H]2C/C=C\CCN(C2=O)[C@@H](Cc2ccc(C)cc2)C(=O)N(C)CC(=O)N[C@@H](CCc2ccc(C(F)(F)F)c(OC)c2)C(=O)N2C[C@H](OCC)C[C@H]2C(=O)NC2(CC(C)(C)C2)C(=O)N(C)[C@@H](C2CCCC2)C(=O)N(C)[C@H](C(=O)N(C)C)CC(=O)N(C)[C@@H](CCC)C(=O)N[C@@H]([C@@H](C)CC)C1=O [PP2099] | A (a compound having 10 or more and less than 20 is denoted as A) | A (a compound having 10 or more and less than 20 is denoted as A) |
